Measurements published in patent publication US20240190890A1, “MK2 INHIBITORS AND USES THEREOF” (Bristol-Myers Squibb Company, priority 2022, published 2024).

The molecules below were run against p38a activated, mitogen-activated protein kinase-activated protein kinase 2 (MAPKAP-K2 or MK2) enzyme (Homo sapiens (Human), UniProt P49137) (assay: MK2 Omnia continuous-read kinase assay for compound potency). Details: [MK-2]=0.4 nM, [ATP]=10 μM, [ST3-Sox]=10 μM; room temperature.
Sequence of p38a activated, mitogen-activated protein kinase-activated protein kinase 2 (MAPKAP-K2 or MK2) enzyme (P49137 whole entry): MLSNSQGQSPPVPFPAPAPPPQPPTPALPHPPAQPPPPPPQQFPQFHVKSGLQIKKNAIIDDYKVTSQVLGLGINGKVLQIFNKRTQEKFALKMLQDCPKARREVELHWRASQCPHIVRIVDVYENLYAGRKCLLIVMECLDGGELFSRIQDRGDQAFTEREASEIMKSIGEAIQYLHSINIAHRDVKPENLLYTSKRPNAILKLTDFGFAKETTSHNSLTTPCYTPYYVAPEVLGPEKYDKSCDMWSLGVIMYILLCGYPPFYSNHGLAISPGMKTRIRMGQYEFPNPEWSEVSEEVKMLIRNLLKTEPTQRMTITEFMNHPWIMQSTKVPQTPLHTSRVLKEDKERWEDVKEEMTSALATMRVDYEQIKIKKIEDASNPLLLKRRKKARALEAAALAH
Assay type: biochemical
How it was run: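 p38a-activated MK2 (0.4 nM) with 10 μM ATP (apparent Km) and 10 μM S/T3-Sox peptide in Tris pH 7.5 buffer with MgCl2, EGTA and DTT. Fluorescence (ex360/em485) read continuously for 120 min at room temperature. IC50 from initial linear slopes; apparent kinact/KI from kobs of exponential progress-curve fits.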
`C#Cc1nc(CO)cc(-c2ccc3c(ccc4sc5c(c43)NC[C@@H](C)NC5=O)n2)n1` [Example I-86, (R)-3-(2-ethynyl-6-(hydroxymethyl)pyrimidin-4-yl)-10-methyl-9,10,11,12-tetrahydro-8H-[1,4]diazepino[5′,6′:4,5]thieno[3,2-f]quinolin-8-one] gave an IC50 of 23 nM. Work on `C[C@@H]1CNc2c(sc3ccc4nc(-n5c(Br)nc(Cl)c5Cl)ccc4c23)C(=O)N1` [Example I-250, (R)-3-(2-bromo-4,5-dichloro-1H-imidazol-1-yl)-10-methyl-9,10,11,12-tetrahydro-8H-[1,4]diazepino[5′,6′:4,5]thieno[3,2-f]quinolin-8-one] yielded an IC50 of 580 nM. With `C=Cc1nc(C)cn1-c1ccc2c(ccc3sc4c(c32)NC[C@@H](C)NC4=O)n1` [Example I-206, (R)-10-methyl-3-(4-methyl-2-vinyl-1H-imidazol-1-yl)-9,10,11,12-tetrahydro-8H-[1,4]diazepino[5′,6′:4,5]thieno[3,2-f]quinolin-8-one] the IC50 was 4 nM. `C#Cc1cc(-c2ccc3c(ccc4sc5c(c43)NC[C@@H](C)NC5=O)n2)c(C#N)cn1` [Example I-162, (R)-6-ethynyl-4-(10-methyl-8-oxo-9,10,11,12-tetrahydro-8H-[1,4]diazepino[5′,6′:4,5]thieno[3,2-f]quinolin-3-yl)nicotinonitrile] was tested, and the IC50 was 2 nM. Work on `C=Cc1cc(-c2ccc3c(ccc4sc5c(c43)NC[C@@H](C)NC5=O)n2)cc(N2CC3(COC3)C2)n1` [Example I-238, (R)-3-(2-(2-oxa-6-azaspiro[3.3]heptan-6-yl)-6-vinylpyridin-4-yl)-10-methyl-9,10,11,12-tetrahydro-8H-[1,4]diazepino[5′,6′:4,5]thieno[3,2-f]quinolin-8-one] yielded an IC50 of 6 nM. Molecule `COCc1nc(Cl)cc(-c2ccc3c(ccc4sc5c(c43)NC[C@@H](C)NC5=O)n2)n1` [Example I-7, (R)-3-(6-chloro-2-(methoxymethyl)pyrimidin-4-yl)-10-methyl-9,10,11,12-tetrahydro-8H-[1,4]diazepino[5′,6′:4,5]thieno[3,2-f]quinolin-8-one] has an IC50 of 6 nM. `CC#Cc1ncc(F)c(-c2ccc3c(ccc4sc5c(c43)NC[C@@H](C)NC5=O)n2)n1` [Example I-44, (R)-3-(5-fluoro-2-(prop-1-yn-1-yl)pyrimidin-4-yl)-10-methyl-9,10,11,12-tetrahydro-8H-[1,4]diazepino[5′,6′:4,5]thieno[3,2-f]quinolin-8-one] was tested, and the IC50 was 1000 nM. Molecule “(R)-10-methyl-3-(6-(4-methylpiperazin-1-yl)-2-vinylpyrimidin-4-yl)-9,10,11,12-tetrahydro-8H-[1,4]diazepino[5′,6′:4,5]thieno[3,2-f]quinolin- [Example I-18]” has an IC50 of 4 nM. Work on “(R)-10-methyl-3-(6-(3-morpholinoprop-1-en-2-yl)pyrimidin-4-yl)-9,10,11,12-tetrahydro-8H-[1,4]diazepino[5′,6′:4,5]thieno[3,2-f]quinolin- [Example I-139]” yielded an IC50 of 2 nM. For `C=Cc1cc(-c2ccc3c(ccc4sc5c(c43)NC[C@@H](C)NC5=O)n2)c(Cl)cn1` [Example I-143, (R)-3-(5-chloro-2-vinylpyridin-4-yl)-10-methyl-9,10,11,12-tetrahydro-8H-[1,4]diazepino[5′,6′:4,5]thieno[3,2-f]quinolin-8-one], the IC50 was 59 nM. Work on `C#Cc1cc(-c2ccc3c(ccc4sc5c(c43)NC[C@@H](C)NC5=O)n2)c(OC)nn1` [Example I-91, (R)-3-(6-ethynyl-3-methoxypyridazin-4-yl)-10-methyl-9,10,11,12-tetrahydro-8H-[1,4]diazepino[5′,6′:4,5]thieno[3,2-f]quinolin-8-one] yielded an IC50 of 26 nM. For `C[C@@H]1CNc2c(sc3ccc4nc(-c5cccc(Cl)n5)ccc4c23)C(=O)N1` [Example I-52, (R)-3-(6-chloropyridin-2-yl)-10-methyl-9,10,11,12-tetrahydro-8H-[1,4]diazepino[5′,6′:4,5]thieno[3,2-f]quinolin-8-one], the IC50 was 116 nM. `C=Cc1nc(C(F)(F)F)nn1-c1ccc2c(ccc3sc4c(c32)NC[C@@H](C)NC4=O)n1` [Example I-226, (R)-10-methyl-3-(3-(trifluoromethyl)-5-vinyl-1H-1,2,4-triazol-1-yl)-9,10,11,12-tetrahydro-8H-[1,4]diazepino[5′,6′:4,5]thieno[3,2-f]quinolin-8-one] was tested, and the IC50 was 7 nM. For `C=Cc1cc(-c2ccc3c(ccc4sc5c(c43)NC[C@@H](C)NC5=O)n2)c(C)c(CN2CCOCC2)n1` [Example I-197, (R)-10-methyl-3-(3-methyl-2-(morpholinomethyl)-6-vinylpyridin-4-yl)-9,10,11,12-tetrahydro-8H-[1,4]diazepino[5′,6′:4,5]thieno[3,2-f]quinolin-8-one], the IC50 was 5 nM. `C=Cc1ncc(CO)c(-c2ccc3c(ccc4sc5c(c43)NC[C@@H](C)NC5=O)n2)n1` [Example I-77, (R)-3-(5-(hydroxymethyl)-2-vinylpyrimidin-4-yl)-10-methyl-9,10,11,12-tetrahydro-8H-[1,4]diazepino[5′,6′:4,5]thieno[3,2-f]quinolin-8-one] showed an IC50 of 13 nM. In the case of “(10R)-3-(2-(2,6-dimethylmorpholino)-6-vinylpyridin-4-yl)-10-methyl-9,10,11,12-tetrahydro-8H-[1,4]diazepino[5′,6′:4,5]thieno[3,2-f]quinolin- [Example I-201]”, the IC50 is reported as 73 nM. With `C=Cc1nccc(-c2ccc3c(ccc4sc5c(c43)NC[C@@H](C)NC5=O)n2)c1C` [Example I-219, (R)-10-methyl-3-(3-methyl-2-vinylpyridin-4-yl)-9,10,11,12-tetrahydro-8H-[1,4]diazepino[5′,6′:4,5]thieno[3,2-f]quinolin-8-one] the IC50 was 142 nM. With `C[C@@H]1CNc2c(sc3ccc4nc(-c5nc(Cl)ncc5COC5(C)COC5)ccc4c23)C(=O)N1` [Example I-28, (R)-3-(2-chloro-5-(((3-methyloxetan-3-yl)oxy)methyl)pyrimidin-4-yl)-10-methyl-9,10,11,12-tetrahydro-8H-[1,4]diazepino[5′,6′:4,5]thieno[3,2-f]quinolin-8-one] the IC50 was 18 nM. Work on `C=Cc1ncc(COC2(C)CCC2)c(-c2ccc3c(ccc4sc5c(c43)NC[C@@H](C)NC5=O)n2)n1` [Example I-26, (R)-10-methyl-3-(5-((1-methylcyclobutoxy)methyl)-2-vinylpyrimidin-4-yl)-9,10,11,12-tetrahydro-8H-[1,4]diazepino[5′,6′:4,5]thieno[3,2-f]quinolin-8-one] yielded an IC50 of 684 nM. `C/C=C/c1ncc(F)c(-c2ccc3c(ccc4sc5c(c43)NC[C@@H](C)NC5=O)n2)n1` [Example I-45, (R,E)-3-(5-fluoro-2-(prop-1-en-1-yl)pyrimidin-4-yl)-10-methyl-9,10,11,12-tetrahydro-8H-[1,4]diazepino[5′,6′:4,5]thieno[3,2-f]quinolin-8-one] showed an IC50 of 160 nM. `C=Cc1cc(-c2ccc3c(ccc4sc5c(c43)NC[C@@H](C)NC5=O)n2)cc(N(C)CCOC)n1` [Example I-237, (R)-3-(2-((2-methoxyethyl)(methyl)amino)-6-vinylpyridin-4-yl)-10-methyl-9,10,11,12-tetrahydro-8H-[1,4]diazepino[5′,6′:4,5]thieno[3,2-f]quinolin-8-one] showed an IC50 of 10 nM. For `C#Cc1cc(-c2ccc3c(ccc4sc5c(c43)NC[C@@H](C)NC5=O)n2)c(C)nn1` [Example I-170, (R)-3-(6-ethynyl-3-methylpyridazin-4-yl)-10-methyl-9,10,11,12-tetrahydro-8H-[1,4]diazepino[5′,6′:4,5]thieno[3,2-f]quinolin-8-one], the IC50 was 18 nM. `C#Cc1cc(-c2ccc3c(ccc4sc5c(c43)NC[C@@H](C)NC5=O)n2)cc(N2CCNCC2)n1` [Example I-176, (R)-3-(2-ethynyl-6-(piperazin-1-yl)pyridin-4-yl)-10-methyl-9,10,11,12-tetrahydro-8H-[1,4]diazepino[5′,6′:4,5]thieno[3,2-f]quinolin-8-one] was tested, and the IC50 was 70 nM. `[2H]c1c(C=C)ncc(C([2H])([2H])[2H])c1-c1ccc2c(ccc3sc4c(c32)NC[C@@H](C)NC4=O)n1` [Example I-249, (R)-10-methyl-3-(5-(methyl-d3)-2-vinylpyridin-4-yl-3-d)-9,10,11,12-tetrahydro-8H-[1,4]diazepino[5′,6′:4,5]thieno[3,2-f]quinolin-8-one] gave an IC50 of 4 nM. With `C#Cc1nncn1-c1ccc2c(ccc3sc4c(c32)NC[C@@H](C)NC4=O)n1` [Example I-204, (R)-3-(3-ethynyl-4H-1,2,4-triazol-4-yl)-10-methyl-9,10,11,12-tetrahydro-8H-[1,4]diazepino[5′,6′:4,5]thieno[3,2-f]quinolin-8-one] the IC50 was 555 nM. Work on `C#Cc1cc(-c2ccc3c(ccc4sc5c(c43)NC[C@@H](C)NC5=O)n2)cc(CO)n1` [Example I-98, (R)-3-(2-ethynyl-6-(hydroxymethyl)pyridin-4-yl)-10-methyl-9,10,11,12-tetrahydro-8H-[1,4]diazepino[5′,6′:4,5]thieno[3,2-f]quinolin-8-one] yielded an IC50 of 60 nM. For `C#Cc1cc(-c2ccc3c(ccc4sc5c(c43)NC[C@@H](C)NC5=O)n2)cc(N2CCOCC2)n1` [Example I-157, (R)-3-(2-ethynyl-6-morpholinopyridin-4-yl)-10-methyl-9,10,11,12-tetrahydro-8H-[1,4]diazepino[5′,6′:4,5]thieno[3,2-f]quinolin-8-one], the IC50 was 214 nM. Work on `C=C(c1cncc(-c2ccc3c(ccc4sc5c(c43)NC[C@@H](C)NC5=O)n2)n1)C(F)(F)F` [Example I-225, (R)-10-methyl-3-(6-(3,3,3-trifluoroprop-1-en-2-yl)pyrazin-2-yl)-9,10,11,12-tetrahydro-8H-[1,4]diazepino[5′,6′:4,5]thieno[3,2-f]quinolin-8-one] yielded an IC50 of 19 nM. For `C[C@@H]1CNc2c(sc3ccc4nc(-c5cc(Cl)nc(C6CCN(C)CC6)c5)ccc4c23)C(=O)N1` [Example I-103, (R)-3-(2-chloro-6-(1-methylpiperidin-4-yl)pyridin-4-yl)-10-methyl-9,10,11,12-tetrahydro-8H-[1,4]diazepino[5′,6′:4,5]thieno[3,2-f]quinolin-8-one], the IC50 was 46 nM.
